From PMC8535866, “TMEM16A, a Homoharringtonine Receptor, as a Potential Endogenic Target for Lung Cancer Treatment” (International Journal of Molecular Sciences, 2021)
Residue numbers refer to the chain shown, from its start.

Experiments:
TMEM16A [1] = target: T1, TMEM16A (Mus musculus, UniProt Q8BHY3); experiment: whole-cell patch clamp in LA795 cells, Hill fit; format: cell-based
T1 construct: gene Ano1; endogenous TMEM16A in LA795 cells
T1 sequence (Q8BHY3 1-960): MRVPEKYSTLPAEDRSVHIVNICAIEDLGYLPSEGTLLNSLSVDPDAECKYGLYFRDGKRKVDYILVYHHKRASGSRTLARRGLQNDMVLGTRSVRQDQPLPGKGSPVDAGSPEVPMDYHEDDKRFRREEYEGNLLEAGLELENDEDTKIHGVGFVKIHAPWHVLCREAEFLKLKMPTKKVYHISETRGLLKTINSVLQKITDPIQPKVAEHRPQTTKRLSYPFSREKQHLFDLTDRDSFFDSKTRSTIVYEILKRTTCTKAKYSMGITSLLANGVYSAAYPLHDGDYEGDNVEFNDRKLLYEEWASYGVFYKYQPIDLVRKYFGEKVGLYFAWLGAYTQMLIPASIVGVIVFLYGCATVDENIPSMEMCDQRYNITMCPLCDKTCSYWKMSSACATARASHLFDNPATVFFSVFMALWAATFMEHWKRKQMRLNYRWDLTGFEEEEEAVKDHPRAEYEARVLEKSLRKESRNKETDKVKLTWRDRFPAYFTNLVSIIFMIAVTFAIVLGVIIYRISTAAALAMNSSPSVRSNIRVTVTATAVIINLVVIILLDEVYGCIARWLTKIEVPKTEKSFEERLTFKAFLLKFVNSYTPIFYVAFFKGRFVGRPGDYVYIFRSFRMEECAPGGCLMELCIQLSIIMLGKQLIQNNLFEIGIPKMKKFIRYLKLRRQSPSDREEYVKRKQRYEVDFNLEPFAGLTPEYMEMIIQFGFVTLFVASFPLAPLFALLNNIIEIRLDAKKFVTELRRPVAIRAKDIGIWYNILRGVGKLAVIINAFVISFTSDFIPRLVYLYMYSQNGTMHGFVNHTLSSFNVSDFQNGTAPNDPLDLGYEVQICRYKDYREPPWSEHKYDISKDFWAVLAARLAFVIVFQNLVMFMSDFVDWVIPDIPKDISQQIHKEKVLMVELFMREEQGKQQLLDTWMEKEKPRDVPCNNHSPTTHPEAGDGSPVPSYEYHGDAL

TMEM16A [2] = target: T2, TMEM16A (Mus musculus, UniProt Q8BHY3, K769A); experiment: whole-cell patch clamp of TMEM16A mutant; format: cell-based
T2 construct: gene Ano1; TMEM16A mutant plasmid
T2 sequence (Q8BHY3 1-960 K769A): T1 sequence (Q8BHY3 1-960) with K769A

COC(=O)C[C@](O)(CCCC(C)(C)O)C(=O)O[C@@H]1C(OC)=C[C@]23CCCN2CCc2cc4c(cc2[C@H]13)OCO4 [HHT, Homoharringtonine]
IC50 (TMEM16A [1]): 11.4 ± 1.68 µM
IC50 (TMEM16A [2]): 70.8 ± 24.3 µM
